For data set [1], the system named is reserpine-induced blepharospasm. Put plainly: antagonism to reserpine-induced blepharospasm. Format: in vivo, male mice. The settings on record: Mus musculus, po, 3 h, read-out: Reserpine antagonism ED50, Blepharospasm. As to the method:
(§1) The antidepressant activity of the ergoline derivatives according to the invention can be evaluated by antagonism to reserpine-induced blepharospasm and hypothermia.
(§2) The tests were performed in an air-conditioned room at a constant termperature of 19°±1° C. Randomized groups of male mice were respectively treated by gavage with appropriate screening doses (from a maximum of 25 mg/kg below) of the test compounds, suspended in the vehicle (Methocel 0.5%; 1 ml/100 g b.w.), or with the vehicle alone. One hour later the animals received an i.p. injection of reserpine (1.5 mg/kg; 1 ml/100 g b.w.), and one of the control groups the same volume of the vehicle alone (blank controls).
(§3) Three hours after pretreatments, i.e. two hours after reserpine or vehicle treatments, blepharospasm was evaluated in scores as proposed by Rubin et al. (J. Pharmacol. 120, 125 (1957)). Two hours after the above mentioned evaluation the rectal temperature of the animals was recorded by an appropriate probe connected to a digital thermometer (Ellab DU-3).

Data set [2] has as its system reserpine-induced hypothermia. As to the kind of experiment: antagonism to reserpine-induced hypothermia. It counts as in vivo, male mice. The conditions noted are these: Mus musculus, po, 5 h; mice; p.o. by gavage 1 h before reserpine 1.5 mg/kg i.p.; rectal temperature 2 h after blepharospasm evaluation. As to the method: as §1, §2, §3
A short description of data set [3]: orientative acute toxicity. The conditions noted are these: in vivo, po.

Like-named read-outs stand apart in the source and are kept apart here.

The record followed here is patent US4675404A, “8-pyridazinylcarbamoyl ergolines” (Farmitala Carlo Erba S.p.A., priority 1981, dated 1987).

On to `CN1C[C@H](C(=O)Nc2nccs2)C[C@@H]2c3cccc4c3c(cn4C)C[C@H]21` [1,6-dimethyl-8β-(2-thiazolyl-carbamoyl)-ergoline, reference compound], for which the ED50 (as a rule, the dose that gives a 50% effect, or the effect in half of the subjects) turned out to be 7 mg/kg in data set [1] and 15 mg/kg in data set [2].
With `Cc1[nH]c2cccc3c2c1C[C@@H]1[C@@H]3C[C@@H](C(=O)Nc2ccc(Cl)nn2)CN1C` [Example 4, 2,6-dimethyl-8β-(6-chloro-3-pyridazinyl-carbamoyl)-ergoline], the 50% lethal dose (LD50) (in general, the dose expected to kill half of the subjects tested) in data set [3] is above 300 mg/kg. In addition, the ED50 in data set [1] amounted to 0.2 mg/kg; in data set [2], 0.6 mg/kg.
For `C=CCN1C[C@H](C(=O)Nc2ccc(Cl)nn2)C[C@@H]2c3cccc4[nH]cc(c34)C[C@H]21` [Example 5, 6-allyl-8β-(6-chloro-3-pyridazinyl-carbamoyl)-ergoline], in that order: above 600 mg/kg, 3.6 mg/kg and 4.5 mg/kg.
For `C=CCN1C[C@H](C(=O)Nc2nccs2)C[C@@H]2c3cccc4[nH]cc(c34)C[C@H]21` [Example 6, 6-allyl-8β-(2-thiazolyl-carbamoyl)-ergoline], in that order: above 300 mg/kg, 2.5 mg/kg and 4 mg/kg.
For `CCCN1C[C@H](C(=O)Nc2nccs2)C[C@@H]2c3cccc4[nH]cc(c34)C[C@H]21` [Example 7, 6-propyl-8β-(2-thiazolyl-carbamoyl)-ergoline], in that order: above 300 mg/kg, 0.5 mg/kg and 0.6 mg/kg.
For `Cc1nnc(NC(=O)[C@@H]2C[C@@H]3c4cccc5[nH]cc(c45)C[C@H]3N(C)C2)s1` [Example 10, 6-methyl-8β-[2-(5-methyl-1,3,4-thiadiazolyl)-carbamoyl]-ergoline], in data set [3], the LD50 is above 600 mg/kg. The 50% effective dose (ED50) in data set [1] was 3.5 mg/kg; in data set [2] it was 3.1 mg/kg.
For `Cc1nnc(NC(=O)[C@@H]2C[C@@H]3c4cccc5[nH]c(C)c(c45)C[C@H]3N(C)C2)s1` [Example 16, 2,6-dimethyl-8β-[2-(5-methyl-1,3,4-thiadiazolyl)-carbamoyl]-ergoline], in that order: above 800 mg/kg, 1 mg/kg and 1.7 mg/kg.
For the molecule `CN(C)CCCN1c2ccccc2CCc2ccccc21` [Imipramine, reference compound], the median effective dose (ED50) in data set [1] (mice, p.o. by gavage 1 h before reserpine 1.5 mg/kg i.p., scored 2 h after reserpine) stood at 8.1 mg/kg; in data set [2] it was 18.2 mg/kg.
